Assay results: patent publication US20160242416A1, “FUNGICIDAL ISOXAZOLINE CARBINOLS” (E I DU PONT DE NEMOURS AND COMPANY, priority 2015, published 2016)

Columns and labels:
Botrytis cinerea = experiment: Test B: gray mold, preventive spray on tomato seedlings; details: 100 = 100% disease control; for Test B rating (% disease control): gray mold on tomato, 0 = no control; for Test B disease control rating: 10 ppm test solution, 0 = no control relative to controls
[1] = system: Puccinia recondita f sp. tritici; experiment: Test F: wheat leaf rust, preventive spray on wheat seedlings; details: 100 = 100% disease control; for Test F rating (% disease control): wheat leaf rust, 0 = no control; for Test F disease control rating: 10 ppm test solution, 0 = no control relative to controls
Zymoseptoria tritici = experiment: Test E: wheat leaf blotch, preventive spray on wheat seedlings; details: 100 = 100% disease control; for Test E rating (% disease control): wheat leaf blotch, 0 = no control; for Test E disease control rating: 10 ppm test solution, 0 = no control relative to controls
Stagonospora nodorum = experiment: Test D: wheat glume blotch, preventive spray on wheat seedlings; details: 100 = 100% disease control; for Test D rating (% disease control): wheat glume blotch, 0 = no control; for Test D disease control rating: 10 ppm test solution, 0 = no control relative to controls
[2] = system: Erysiphe graminis f sp. tritici; experiment: Test G: wheat powdery mildew, preventive spray on wheat seedlings; details: 100 = 100% disease control; for Test G rating (% disease control): wheat powdery mildew, 0 = no control; for Test G disease control rating: 10 ppm test solution, 0 = no control relative to controls
Text: General protocol for preparing test solutions for Tests A-G: the test compounds were first dissolved in acetone in an amount equal to 3% of the final volume and then suspended at the desired concentration (in ppm) in acetone and purified water (50/50 mix by volume) containing 250 ppm of the surfactant PEG400 (polyhydric alcohol esters). The resulting test suspensions were then used in Tests A-G. Compounds were sprayed at a concentration of 50 ppm (*) or 10 ppm to the point of run-off on the test plants, the equivalent of a rate of 200 g/ha or 40 g/ha, respectively.
The test solution was sprayed to the point of run-off on wheat seedlings. The following day the seedlings were inoculated with a spore dust of Erysiphe graminis f sp. tritici, (the causal agent of wheat powdery mildew) and incubated in a growth chamber at 20° C. for 8 days, after which time visual disease ratings were made.
Compounds with an asterisks (*) were applied at a concentration of 50 ppm, otherwise test solutions were applied at 10 ppm.

Row | Structure (SMILES) | Test B rating (% disease control) (Botrytis cinerea; 10 ppm) | Test F rating (% disease control) ([1]; 10 ppm) | Test E rating (% disease control) (Zymoseptoria tritici; 10 ppm) | Test D rating (% disease control) (Stagonospora nodorum; 10 ppm) | Test G rating (% disease control) ([2]; 10 ppm) | further results
1 | OC(Cc1ccccc1)(Cn1cncn1)C1=NOC(c2ccc(Cl)cc2)C1 (single isomer, unassigned) [Compound 121] |  |  |  |  |  | Test B rating (% disease control) (Botrytis cinerea; 50 ppm (asterisk)): 100%; Test F rating (% disease control) ([1]; 50 ppm (asterisk)): 100%; Test E rating (% disease control) (Zymoseptoria tritici; 50 ppm (asterisk)): 62%; Test D rating (% disease control) (Stagonospora nodorum; 50 ppm (asterisk)): 100%; Test G rating (% disease control) ([2]; 50 ppm (asterisk)): 100%
2 | CC(C)(C)CC(O)(Cn1cncn1)C1=NOC(c2ccc(Cl)cc2)C1 (single isomer, unassigned) [Compound 139] | 0% | 100% | 6% | 99% | 99% | 
3 | CC(C)(C)CC(O)(Cn1cncn1)C1=NOC(Cc2ccc(C(F)(F)F)cc2)C1 (single isomer, unassigned) [Compound 227] |  |  |  |  |  | Test B disease control rating (Botrytis cinerea): 0%; Test F disease control rating [1]: 100%; Test E disease control rating (Zymoseptoria tritici): 29%; Test D disease control rating (Stagonospora nodorum): 73%; Test G disease control rating [2]: 100%
4 | OC(Cn1cncn1)(C1=NOC2c3ccccc3CCC12)c1ccc(Cl)cc1 (centres unmarked) [Compound 223] |  |  |  |  |  | Test B disease control rating (Botrytis cinerea): 0%; Test F disease control rating [1]: 100%; Test E disease control rating (Zymoseptoria tritici): 63%; Test D disease control rating (Stagonospora nodorum): 0%; Test G disease control rating [2]: 99%
5 | CC(C)(C)C(O)(Cn1cncn1)C1=NOC(COc2ccc(OCc3ccccc3)cc2)C1 (single isomer, unassigned) [Compound 71] | 0% | 26% | 1% | 0% | 94% | 
6 | CC(C)(C)C(O)(Cn1cncn1)C1=NOC(COc2ccc(-n3cc(Cl)cn3)cc2)C1 (centres unmarked) [Compound 31] | 0% | 0% | 0% | 0% | 100% | 
7 | CC(C)(C)CC(O)(Cn1cncn1)C1=NOC(Cc2ccc(Cl)cc2)C1 (single isomer, unassigned) [Compound 206] | 9% | 100% | 13% | 86% | 99% | 
8 | CC(C)(C)C(O)(Cn1cncn1)C1=NOC(c2ccc(-n3cc(Br)cn3)cc2)C1 (single isomer, unassigned) [Compound 8] | 0% | 0% | 0% | 0% | 100% | 
9 | C[S+]([O-])c1ccc(C2CC(C(O)(Cn3cncn3)c3ccc(Cl)cc3)=NO2)cc1 (single isomer, unassigned) [Compound 111] | 0% | 100% | 9% | 0% | 98% | 
10 | CC(C)(C)C(O)(Cn1cncn1)C1=NOC(COc2ccc(Br)cc2)C1 (single isomer, unassigned) [Compound 183] | 24% | 100% | 35% | 99% | 100% | 
11 | OC(Cn1cncn1)(C1=NOC(Cc2ccc(Cl)cc2)C1)c1ccc(Cl)cc1 (single isomer, unassigned) [Compound 201] | 0% | 100% | 1% | 50% | 96% | 
12 | CC(C)(C)C(O)(Cn1cncn1)C1=NOC(COc2cccc(Br)c2)C1 (single isomer, unassigned) [Compound 232] |  |  |  |  |  | Test B disease control rating (Botrytis cinerea): 98%; Test F disease control rating [1]: 100%; Test E disease control rating (Zymoseptoria tritici): 41%; Test D disease control rating (Stagonospora nodorum): 99%; Test G disease control rating [2]: 100%
13 | OC(Cn1cncn1)(C1=NOC(COC2CCCCC2)C1)c1ccc(Cl)cc1 (single isomer, unassigned) [Compound 89] | 0% | 0% | 0% | 0% | 76% | 
14 | CC(C)(C)C(O)(Cn1cncn1)C1=NOC(COCc2ccccc2)C1 (single isomer, unassigned) [Compound 59] | 0% | 80% | 2% | 92% | 89% | 
15 | OC(Cn1cncn1)(C1=NOC(c2ccc(-n3ccc(C(F)(F)F)n3)cc2)C1)c1ccc(Cl)cc1 (single isomer, unassigned) [Compound 148] | 0% | 100% | 92% | 59% | 100% | 
16 | CC(C)(C)C(O)(Cn1cncn1)C1=NOC(COc2cccc(Cl)c2)C1 (single isomer, unassigned) [Compound 230] |  |  |  |  |  | Test B disease control rating (Botrytis cinerea): 99%; Test F disease control rating [1]: 100%; Test E disease control rating (Zymoseptoria tritici): 8%; Test D disease control rating (Stagonospora nodorum): 100%; Test G disease control rating [2]: 99%
17 | OC(Cn1cncn1)(C1=NOC(Cc2ccc(C(F)(F)F)cc2)C1)c1ccc(Cl)cc1 (single isomer, unassigned) [Compound 203] | 0% | 100% | 16% | 55% | 99% | 
18 | CC(C)(C)C(O)(Cn1cncn1)C1=NOC(COc2ccc(OCc3ccccc3)cc2)C1 (single isomer, unassigned) [Compound 72] | 19% | 0% | 0% | 0% | 56% | 
19 | OC(Cn1cncn1)(C1=NOC(c2ccc(Cl)cc2)C1)c1ccc(Cl)cc1Cl (single isomer, unassigned) [Compound 140] | 0% | 100% | 67% | 82% | 99% | 
20 | OC(Cn1cncn1)(C1=NOC(c2ccc(Cl)cc2)C1)c1ccc(C(F)(F)F)cc1 (single isomer, unassigned) [Compound 105] | 0% | 100% | 8% | 96% | 99% | 
21 | CC(C)(C)C(O)(Cn1cncn1)C1=NOC(COc2ccc3c(c2)OCO3)C1 (single isomer, unassigned) [Compound 46] | 19% | 85% | 0% | 76% | 73% | 
22 | CCC(C)(C)C(O)(Cn1cncn1)C1=NOC(Cc2ccc(C(F)(F)F)cc2)C1 (single isomer, unassigned) [Compound 20] | 0% | 100% | 98% | 65% | 99% | 
23 | CCC(C)(C)C(O)(Cn1cncn1)C1=NOC(Cc2ccc(Cl)cc2)C1 (single isomer, unassigned) [Compound 17] | 51% | 100% | 7% | 98% | 100% | 
24 | CC(C)(C)C(O)(Cn1cncn1)C1=NOC(COc2ccc(-n3cc(Br)cn3)cc2)C1 (centres unmarked) [Compound 30] | 99% | 79% | 0% | 0% | 100% | 
25 | CC(C)(C)C(O)(Cn1cncn1)C1=NOC(COc2ccc(OC(F)(F)F)cc2)C1 (single isomer, unassigned) [Compound 24] | 37% | 100% | 0% | 99% | 100% | 
26 | CCC(C)(C)C(O)(Cn1cncn1)C1=NOC(Cc2ccc(C(F)(F)F)cc2)C1 (single isomer, unassigned) [Compound 19] | 0% | 100% | 10% | 89% | 100% | 
27 | OC(Cn1cncn1)(C1=NOC(c2cccc(Oc3ccccc3)c2)C1)c1ccc(Cl)cc1 (single isomer, unassigned) [Compound 177] | 0% | 0% | 0% | 51% | 89% | 
28 | OC(Cn1cncn1)(C1=NOC(COc2ccc(OCc3ccccc3)cc2)C1)c1ccc(Cl)cc1 (single isomer, unassigned) [Compound 70] | 28% | 9% | 0% | 47% | 76% | 
